From patent publication US8664257B2, “Oxygen-substituted 3-heteroaroylamino-propionic acid derivatives and their use as pharmaceuticals” (Sanofi, priority 2010, dated 2014)

biological target: T1, Recombinant human cathepsin A (Homo sapiens, UniProt P10619); experiment: Cathepsin A inhibitory activity; format: biochemical; conditions: read-out: Activity (2): Cathepsin A inhibitory activity (IC50 class)
T1 construct: Recombinant human cathepsin A (residues 29-480, with a C-terminal 10-His tag); 10-His (C); purchased R&D Systems 1049-SE
T1 sequence (P10619 29-312 limits assumed): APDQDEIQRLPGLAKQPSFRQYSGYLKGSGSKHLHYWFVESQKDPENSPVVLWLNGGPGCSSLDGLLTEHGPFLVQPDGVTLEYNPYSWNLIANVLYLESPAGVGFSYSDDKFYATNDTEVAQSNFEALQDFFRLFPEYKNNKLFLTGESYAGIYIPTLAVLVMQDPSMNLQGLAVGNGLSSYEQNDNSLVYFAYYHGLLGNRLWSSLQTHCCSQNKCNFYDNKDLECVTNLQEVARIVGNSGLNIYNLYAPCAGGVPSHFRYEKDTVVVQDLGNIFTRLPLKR
T1 sequence (P10619 327-480 limits assumed): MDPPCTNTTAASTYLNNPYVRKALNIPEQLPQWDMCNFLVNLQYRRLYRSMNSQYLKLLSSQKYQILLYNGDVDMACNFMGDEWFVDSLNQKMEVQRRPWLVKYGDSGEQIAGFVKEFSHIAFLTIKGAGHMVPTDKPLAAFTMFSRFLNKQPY
Procedure, shortened: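 Human cathepsin A (res. 29-480, C-His10) pre-activated with cathepsin L (MES pH 6.0, DTT, 15 min, 37 °C; quenched with 10 μM E-64). Enzyme (833 ng/ml) preincubated 15 min RT with compound in MES pH 5.5/DTT, then 2 μM Bodipy FL-bradykinin for 15 min RT. Capillary electrophoresis product/substrate peak areas; IC50 from % inhibition.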

Structure (SMILES)	IC50 [nM]
COc1cc(C(=O)N[C@@H](CC(=O)O)c2ccccc2C(F)(F)F)nn1-c1ccccc1F [Example 680, (S)-3-{[1-(2-Fluoro-phenyl)-5-methoxy-1H-pyrazole-3-carbonyl]-amino}-3-(2-trifluoromethyl-phenyl)-propionic acid]	100 to 1000
COc1ccccc1[C@H](CC(=O)O)NC(=O)c1cc(OCC2CC2)n(-c2ccccc2F)n1 [Example 687]	100 to 1000
COc1cccc([C@H](CC(=O)O)NC(=O)c2cc(OCC3CC3)n(-c3ccccc3F)n2)c1 [Example 689]	100 to 1000
O=C(O)C[C@H](NC(=O)c1cc(OCC2CC2)n(-c2ccccc2F)n1)c1ccc(Cl)cc1 [Example 691]	100 to 1000
O=C(O)C[C@H](NC(=O)c1cc(OCC2CC2)n(-c2ccccc2F)n1)c1ccc(Cl)cc1Cl [Example 693]	100 to 1000
O=C(O)CC(NC(=O)c1cc(OCC2CC2)n(-c2ccccc2F)n1)c1ccc(F)cc1 (stereo not drawn) [Example 698]	100 to 1000
O=C(O)C[C@H](NC(=O)c1cc(OCC2CC2)n(-c2ccccc2F)n1)c1ccccc1F [Example 699]	100 to 1000
Cc1ccccc1[C@H](CC(=O)O)NC(=O)c1cc(OCC(=O)C(C)(C)C)n(-c2ccccc2F)n1 [Example 700, (S)-3-{[5-(3,3-Dimethyl-2-oxo-butoxy)-1-(2-fluoro-phenyl)-1H-pyrazole-3-carbonyl]-amino}-3-o-tolyl-propionic acid]	< 100
O=C(O)C[C@H](NC(=O)c1cc(OCC2CC2)n(-c2ccccc2F)n1)c1ccccc1C(F)(F)F [Example 701]	100 to 1000
O=C(O)C[C@H](NC(=O)c1cc(OCC2CC2)n(-c2ccccc2F)n1)c1cccc(Cl)c1Cl [Example 702]	< 100
Cc1cccc(C(CC(=O)O)NC(=O)c2cc(OCC3CC3)n(-c3ccccc3F)n2)c1C (stereo not drawn) [Example 703]	< 100
O=C(O)CC(NC(=O)c1cc(OCC2CC2)n(-c2ccccc2F)n1)c1cc(Cl)ccc1Cl (stereo not drawn) [Example 704]	< 100

Second part, the molecule after the results:

IC50 [nM]	Structure (SMILES)
< 100	COc1cc(C(=O)N[C@@H](CC(=O)O)c2cccc(Cl)c2Cl)nn1-c1ccccc1F [Example 681]
< 100	COc1cc(C(=O)NC(CC(=O)O)c2cccc(C)c2C)nn1-c1ccccc1F (stereo not drawn) [Example 682, 3-(2,3-Dimethyl-phenyl)-3-{[1-(2-fluoro-phenyl)-5-methoxy-1H-pyrazole-3-carbonyl]-amino}-propionic acid]
< 100	COc1cc(C(=O)NC(CC(=O)O)c2cc(Cl)ccc2Cl)nn1-c1ccccc1F (stereo not drawn) [Example 683]
< 100	Cc1c(F)cccc1C(CC(=O)O)NC(=O)c1cc(OCC2CC2)n(-c2ccccc2F)n1 (stereo not drawn) [Example 684, 3-{[5-Cyclopropylmethoxy-1-(2-fluoro-phenyl)-1H-pyrazole-3-carbonyl]-amino}-3-(3-fluoro-2-methyl-phenyl)-propionic acid]
< 100	O=C(O)C[C@H](NC(=O)c1cc(OCC2CC2)n(-c2ccccc2F)n1)c1ccccc1 [Example 685]
< 100	Cc1ccc(C(CC(=O)O)NC(=O)c2cc(OCC3CC3)n(-c3ccccc3F)n2)c(C)c1 (stereo not drawn) [Example 686]
< 100	N#Cc1ccc([C@H](CC(=O)O)NC(=O)c2cc(OCC3CC3)n(-c3ccccc3F)n2)cc1 [Example 688]
< 100	Cc1cccc([C@H](CC(=O)O)NC(=O)c2cc(OCC3CC3)n(-c3ccccc3F)n2)c1 [Example 690, (S)-3-{[5-Cyclopropylmethoxy-1-(2-fluoro-phenyl)-1H-pyrazole-3-carbonyl]-amino}-3-m-tolyl-propionic acid]
< 100	COc1ccc(C(CC(=O)O)NC(=O)c2cc(OCC3CC3)n(-c3ccccc3F)n2)c(C)c1 (stereo not drawn) [Example 692]
< 100	O=C(O)C[C@H](NC(=O)c1cc(OCC2CC2)n(-c2ccccc2F)n1)c1ccc(C(F)(F)F)cc1 [Example 694]
< 100	Cc1ccc([C@H](CC(=O)O)NC(=O)c2cc(OCC3CC3)n(-c3ccccc3F)n2)cc1 [Example 695]
< 100	O=C(O)C[C@H](NC(=O)c1cc(OCC2CC2)n(-c2ccccc2F)n1)c1ccccc1Cl [Example 696]
